{"source": "patent US8026254B2", "about": "“Therapeutic agents useful for treating pain” (Purdue Pharma, L.P., priority 2002, dated 2011)", "target": "μ-opioid receptors (Homo sapiens, UniProt P35372)", "sequence (P35372 whole entry)": "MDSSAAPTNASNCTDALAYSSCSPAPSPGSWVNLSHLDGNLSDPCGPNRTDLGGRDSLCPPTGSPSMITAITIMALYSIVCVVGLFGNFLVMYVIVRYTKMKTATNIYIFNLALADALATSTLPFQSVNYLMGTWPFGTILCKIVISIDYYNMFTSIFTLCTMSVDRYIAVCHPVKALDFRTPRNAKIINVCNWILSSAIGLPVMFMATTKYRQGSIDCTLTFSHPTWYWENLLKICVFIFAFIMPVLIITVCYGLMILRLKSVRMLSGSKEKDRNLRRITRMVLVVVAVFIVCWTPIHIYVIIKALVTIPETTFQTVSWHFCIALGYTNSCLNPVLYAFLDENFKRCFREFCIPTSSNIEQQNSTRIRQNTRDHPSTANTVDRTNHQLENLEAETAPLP", "experiment": "μ-opioid receptor radioligand dose-displacement binding assay ([3H]-diprenorphine)", "method": "μ- and ORL-1-Receptor-Binding-Assay Procedures\nRadioligand dose-displacement binding assays for ORL-1 and […] use 0.1 nM [^3H]-nociceptin or 0.2 nM [^3H]-diprenorphine (NEN, Boston, Mass.), respectively, with […] membrane protein/well in a final volume of […] binding buffer (10 mM MgCl2, 1 mM EDTA, 5% DMSO, 50 mM HEPES, pH 7.4). Reactions are carried out in the absence or presence of increasing concentrations of unlabled nociceptin (American Peptide Company, Sunnyvale, Calif.) or naloxone, for ORL-1 and μ, respectively. All reactions are conducted in 96-deep well polypropylene plates for 1-2 h at room temperature. Binding reactions are terminated by rapid filtration onto 96-well Unifilter GF/C filter plates (Packard, Meriden, Conn.) presoaked in 0.5% polyethylenimine using a 96-well tissue harvester (Brandel, Gaithersburg, Md.) followed performing by three filtration washes with 500 μL of ice-cold binding buffer. Filter plates are subsequently dried at 50° C. for 2-3 h. BetaScint scintillation cocktail (Wallac, Turku, Finland) is added (50 μl/well), and plates are counted using a Packard Top-Count for 1 min/well. The data are analyzed using the one-site competition curve fitting functions in GraphPad PRISM v. 3.0 (San Diego, Calif.).", "data": [{"smiles": "CN(C)C(=O)C(CCN1CCC(c2ccccc2)(c2nnn[nH]2)CC1)(c1ccccc1)c1ccccc1", "note": "[AFD]", "values": [{"measurement": "Ki", "result": 3.2, "unit": "nM"}]}]}
